Results: US6342633B1, “O-benzyl oxime ether derivatives and their use as pesticides” (Bayer Aktiengesellschaft, priority 1993, dated 2002)

| Structure (SMILES) | melting point [°C] |
| --- | --- |
| C/N=C(OC)/C(=N/OC)c1ccccc1CO/N=C(\C)c1ccc(Cl)cc1 [Example H-4, N,O-dimethyl-2-[2-(methyl(4-chlorophenyl)oximinomethyl)phenyl]2-methoximinoacetimidate] | 79 to 80 |
| [H]/N=C(OC)/C(=N/OC)c1ccccc1CON=C(C)c1ccc(Cl)cc1 [Compound 1.13] | 73 to 75 |
| CNC(=S)/C(=N/OC)c1ccccc1CO/N=C(\C)c1cccc(C(F)(F)F)c1 [Compound 4.51, N-methyl-2-[2-(methyl(3-trifluoromethylphenyl)oximinomethyl)phenyl]-2-methoximinothioacetamide] | 100 to 106 |
| CNC(=S)/C(=N/OC)c1ccccc1CON=C(C)c1ccc(Cl)cc1 [Compound 4.10] | 88 to 89 |
| CO/N=C(N)/C(=N/OC)c1ccccc1CO/N=C(\C)c1ccc(Cl)cc1 [Compound 3.101] | 76 to 78 |
